In patent US20080280860A1, “Use of Vitamin D Compounds to Treat Endometriosis” (BioXell S.p.A., priority 2005, published 2008):

What was measured:
endometriotic lesions = test: In vivo model of endometriosis (lesion weight); set-up: species or system Balb/c mice
Experimental: Balb/c donor mice were injected with estrogen (Estradiol AMSA; 3 ug/mouse) and one week later were sacrificed and the uterus was removed, the two horns isolated and reduced to small fragments. The fragments derived from the isolated uterine horns were resuspended in saline with ampicillin (1 mg/ml) and then injected into the peritoneum of two recipient Balb/c mice, previously anesthesized, through a 0.5 cm incision in the abdominal wall. […] Antibiotic (ampicillin 1 mg/ml) was administered on the day of the surgery and on the day after. […] […] Lesions can be identified as translucid isolated or grouped cysts mainly found on the abdominal wall, on the pancreas, and around the uterus. In some cases the lesions are necrotic. The lesions were carefully removed and put on a glass slide to dry for 48 hours, and then were weighed. In other experiments lesions are transferred to a lysis solution and mRNA isolated for gene expression analysis. For immunohistochemical analysis, lesions were frozen immediately after isolation.
Balb/c donor mice were injected with estrogen (Estradiol AMSA; 3 ug/mouse) and one week later were sacrificed and the uterus was removed, the two horns isolated and reduced to small fragments. The fragments derived from the isolated uterine horns were resuspended in saline with ampicillin (1 mg/ml) and then injected into the peritoneum of two recipient Balb/c mice, previously anesthetised, through a 0.5 cm incision in the abdominal wall. Antibiotic (ampicillin 1 mg/ml) was administered on the day of the surgery and on the day after. […] Dosage levels of the test compounds were at the maximum tolerated levels for the compound in question, i.e. 1-alpha-fluoro-25-hydroxy-16,23E-diene-26,27-bishomo-20-epi-cholecalciferol (Compound A) 100 ug/kg, calcitriol (Compound B) 0.3 ug/kg and 1,25-dihydroxy-21-(3-hydroxy-3-methylbutyl)-19-nor-cholecalciferol (Compound C) 3 ug/kg.
(§1) […] Lesions can be identified as translucid isolated or grouped cysts mainly found on the abdominal wall, on the pancreas, and around the uterus. In some cases the lesions are necrotic. The lesions were carefully removed and put on a glass slide to dry for 48 hours, and then were weighed.
Balb/c donor mice were injected with estrogen (Estradiol AMSA; 3 ug/mouse) and one week later were sacrificed and the uterus was removed, the two horns isolated and reduced to small fragments. The fragments derived from the isolated uterine horns were resuspended in saline with ampicillin (1 mg/ml) and then injected into the peritoneum of recipient Balb/c mice, previously anesthetised, through a 0.5 cm incision in the abdominal wall. Antibiotic (ampicillin 1 mg/ml) was administered on the day of the surgery and on the day after. […]
as §1, with “weighed. At least 10 test animals were used in each group.” for “weighed.”
Further experiments were performed using Compound A at 100 ug/kg but varying the time at which administration of the vitamin D compound was initiated and the time point at which administration was ceased. Specifically: (i) administration for 1 week prior to injection of the uterine fragments (ii) administration for 2 weeks subsequent to injection of the uterine fragments (iii) administration for 1 week prior and 2 weeks subsequent to injection of the uterine fragments (iv) administration for 2 weeks, initiated two days subsequent to injection of the uterine fragments (v) administration for 2 weeks, initiated two weeks subsequent to injection of the uterine fragments. In these experiments, subjects were sacrificed at the later of two weeks post injection or the end of the treatment period as appropriate.

[1] = test system: Eutopic endometrium stromal cells; test: Proliferation of endometrial stromal cells in vitro (CyQuant), eutopic; assay type: cell-based; settings: 1 uM-0.1 nM, 48-96 hours; FIG. 2A
Experimental: Tissue was gently minced into small pieces (1 to 2 mm^3) and incubated at 37° C. for 1 h with 0.1% type A collagenase. At the end of the incubation, single stromal cells were separated from large clumps of epithelium by a 10 min. period of differential sedimentation at unity gravity. The top 8 ml of medium, containing predominantly stromal cells, were then slowly removed and the cells were collected by centrifugation. The stromal-enriched fraction was washed twice in culture medium and allowed to adhere selectively to tissue culture dishes for 15 min.
Thereafter, nonattached epithelial cells still present were removed and a purified stromal preparation was obtained on the surface of the culture dishes.
The cells were maintained in DMEM supplemented with 10% Fetal Bovine Serum (SIGMA) and 100 U/ml penicillin, 100 ug/ml streptomycin (GIBCO cat. no. 15140-122).
When the stromal cells were grown to confluence, were washed in PBS and then trypsinized using 1× trypsin/EDTA solution (PromoCell cat. no. C-41002). […] The proliferation was determined with CyQuant Cell Proliferation Assay (Molecular Probe cat. no. C7026). […]
The fluorescence was determined using a fluorescence microplate reader with filters appropriate for ˜480 nm excitation and ˜520 nm emission.

Maximum tolerated dose = assay type: in vivo, Balb/c mice
[2] = Example 3 dose/response, ip once a day, 5 days a week for two weeks, FIG. 7

C=C1/C(=C\C=C2/CCC[C@]3(C)C([C@@H](C)C/C=C/C(O)(CC)CC)=CC[C@@H]23)C[C@@H](O)C[C@@H]1F [Compound A, 1-alpha-fluoro-25-hydroxy-16,23E-diene-26,27-bishomo-20-epi-cholecalciferol]
reduction in lesion weight, group (v) (endometriotic lesions; 100 ug/kg, 2 weeks, initiated 2 weeks after uterus transfer, FIG. 8): 34% | reduction in lesion weight, group (iv) (endometriotic lesions; 100 ug/kg, 2 weeks, initiated 2 days after uterus transfer, FIG. 8): 35% | reduction in lesion weight, group (i) (endometriotic lesions; 100 ug/kg, administration for 1 week prior to injection of the uterine fragments, FIG. 8): 40% | reduction in lesion weight, group (iii) (endometriotic lesions; 100 ug/kg, one week before and two weeks after uterus transfer, FIG. 8): 73% | reduction in lesion weight, group (ii) (endometriotic lesions; 100 ug/kg, two weeks starting at the time of uterus transfer, FIG. 8): 48% | lesion weight, treated versus control (vehicle only) (endometriotic lesions; Example 1, 100 ug/kg ip once a day, 5 days a week for two weeks, 17 pairs of mice, p=0.0034 paired, p=0.020 unpaired t test): significant reduction in lesion weight | lesion weight reduction between paired animals (mean ± standard error) (endometriotic lesions; Example 2, 100 ug/kg ip once a day, 5 days a week for two weeks after uterus transfer, 24 mice per group): 51±11% | mean lesion weight (endometriotic lesions; Example 2, 100 ug/kg ip, two weeks, miglyol control 8.452±1.039 mg): 3.527 ± 0.5400 mg | reduction in lesion weight compared with the other compounds tested (endometriotic lesions; Example 2, each compound at its maximum tolerated level): most pronounced | lesion weight, treated versus control (vehicle only), statistical analysis (endometriotic lesions; Example 2, each compound at its maximum tolerated level, ip once a day, 5 days a week for two weeks): significant reduction in lesion weight | reduction in lesion weight at 1/10 MTD (endometriotic lesions; [2]): approximately 20% | reduction in lesion weight at around ⅓ MTD (endometriotic lesions; [2]): approximately 35% | cell proliferation, Eutopic endometrium [1]: reduction in cell proliferation | MTD (Maximum tolerated dose; Balb/c, mouse, in vivo, mice, ip, above it the compound becomes hypercalcemic): 0.1 mg/kg | associated toxicity compared with the other compounds tested (Maximum tolerated dose; Example 2): lower associated toxicity
